PMC10531311, “Anti-Inflammatory Activities of 8-Benzylaminoxanthines Showing High Adenosine A2A and Dual A1/A2A Receptor Affinity” (International Journal of Molecular Sciences, 2023)
Marks after values point to notes of the source that are not given here.

How the values were obtained:
[1] = Precipitation in culture medium seen under inverted microscope; type: physicochemical; details: 25 μM, 50 μM, 100 μM
[2] = system: carrageenan-induced paw edema in rats; test: Carrageenan-induced paw edema test; type: in vivo, Wistar rats; details: 20 mg/kg ip; for Change in Edema Volume 1 h / inhibition of edema, first hour: 1 h; for Change in Edema Volume 2 h / inhibition of edema, second hour: 2 h; for Change in Edema Volume 3 h / inhibition of edema, third hour: 3 h
Protocol: The carrageenan test is used to evaluate the anti-inflammatory effect, as the injection of this compound into the hind paw of an animal induces long-lasting edema. The aim of the present study was to evaluate the anti-inflammatory (antiedematous) activity of the compounds tested: 19, 22 and 24. The compounds were administered at a dose of 20 mg/kg of body weight (bw).
The in vivo experiments were carried out on male albino Swiss mice weighing 18–26 g and male Wistar rats weighing 150–180 g. The animals were housed in constant temperature facilities exposed to a 12:12 light-dark cycle and maintained on a standard pellet diet and tap water given ad libitum. The control and experimental groups consisted of 6–8 animals each. The investigated compounds were intraperitoneally (ip) administered in the form of a suspension in 0.5% methylcellulose. Control animals received the equivalent volume of solvent. All procedures were conducted according to the guidelines of ICLAS (International Council on Laboratory Animals Science) and were approved by the Local Ethics Committee of the Jagiellonian University in Kraków.
Rats were divided into four groups, one of them being the control. In order to produce inflammation, 0.1 mL of 1% carrageenan solution in water was injected into the hind paw subplantar tissue of rats, according to the modified method of C. A. Winter and P. Lence. […] Prior to the administration of test substances, paw diameters were measured by dividers and recorded. The investigated compounds were administered at a dose of 20 mg/kg, ip (as a suspension in methylcellulose), prior to carrageenan injection. […] After these administrations, paw diameters were measured at 1, 2 and 3 h. The edema % and edema inhibition % were calculated according to the formulas given below. Edema% = (N′ × 100)/N Edema inhibition% = (N – N′ × 100)/N
N: Paw diameters measured 1, 2 and 3 h after injection of carrageenan to the control group—paw diameters at the beginning.
N′: Paw diameters measured 1, 2 and 3 h after injection of carrageenan to the test groups—paw diameters at the beginning.

human adenosine A2AR = target: T1, human adenosine A2AR (Homo sapiens, UniProt P29274); test: Radioligand binding at human adenosine A2A receptor vs. [3H]MSX-2; details: for potency as A2AR ligand compared with A1R: from Ki values of Table 1; for Ki: human recombinant receptor in CHO cells, read-out: A2AR vs. [³H]MSX-2 Ki ± SEM
T1 construct: expressed in transfected cells; host or cells: CHO cells
Protocol: (§1) Affinities for adenosine receptors were evaluated in radioligand binding assays as previously described. Human adenosine receptors were stably expressed in CHO cells. The following radioligands were used: [^3H]2-chloro-N^6-cyclopentyladenosine ([^3H]CCPA) for A1R; [^3H]3-(3-hydroxypropyl)-7-methyl-8-(m-methoxystyryl)-1-propargylxanthine ([^3H]MSX-2) for A2AR; [^3H]8-(4-(4-(4-chlorophenyl)piperazine-1-sulfonyl)phenyl)-1-propylxanthine ([^3H]PSB-603) for A2BR; [^3H]phenyl-8-ethyl-4-methyl-(8R)-4,5,7,8-tetrahydro-1H-imidazo [2,1-i]purine-5-one ([^3H]PSB-11) for A3R. Initially, compounds were tested at a concentration of 1 µM. […] At least three independent experiments were performed. Data were analyzed using GraphPad PRISM version 5.0 or higher (Graph Pad, San Diego, CA, USA). Ki were calculated using the Cheng–Prusoff equation.

human adenosine A3R = target: T2, human adenosine A3R (Homo sapiens, UniProt P0DMS8); test: Radioligand binding at human adenosine A3 receptor vs. [3H]PSB-11; details: for inhibition at 1 µM: CHO cells, read-out: A3R vs. [H³]PSB-11 % Inhibition ± SEM at 1 µM; for Ki: human recombinant receptor in CHO cells, read-out: A3R vs. [H³]PSB-11 Ki ± SEM
T2 construct: expressed in transfected cells; host or cells: CHO cells
T2 sequence (P0DMS8 1-318): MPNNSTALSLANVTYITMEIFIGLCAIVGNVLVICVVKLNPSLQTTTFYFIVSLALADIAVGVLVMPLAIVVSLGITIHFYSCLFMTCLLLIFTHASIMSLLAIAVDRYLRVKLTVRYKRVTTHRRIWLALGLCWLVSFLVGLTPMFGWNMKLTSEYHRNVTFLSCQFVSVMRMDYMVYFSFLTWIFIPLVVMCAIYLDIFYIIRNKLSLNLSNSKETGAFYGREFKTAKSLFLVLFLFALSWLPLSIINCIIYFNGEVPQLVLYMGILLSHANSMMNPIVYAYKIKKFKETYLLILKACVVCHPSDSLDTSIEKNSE
Protocol: as §1

T1 sequence (P29274 whole entry): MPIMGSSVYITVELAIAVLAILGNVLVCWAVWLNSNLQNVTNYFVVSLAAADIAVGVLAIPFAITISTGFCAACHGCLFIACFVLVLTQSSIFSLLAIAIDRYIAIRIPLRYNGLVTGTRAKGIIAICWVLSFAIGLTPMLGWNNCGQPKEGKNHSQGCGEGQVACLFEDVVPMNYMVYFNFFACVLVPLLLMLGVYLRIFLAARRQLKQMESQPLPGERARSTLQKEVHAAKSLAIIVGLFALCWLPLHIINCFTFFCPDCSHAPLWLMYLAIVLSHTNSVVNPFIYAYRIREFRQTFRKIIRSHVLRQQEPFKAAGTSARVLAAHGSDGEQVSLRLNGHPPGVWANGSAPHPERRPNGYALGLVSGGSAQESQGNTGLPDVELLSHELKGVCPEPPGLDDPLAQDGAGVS

potency as A2AR ligand compared with A1R (human adenosine A2AR) | Ki (human adenosine A2AR) [nM] | inhibition at 1 µM (human adenosine A3R) [%] | Ki (human adenosine A3R) [nM] | SMILES | behaviour in the culture medium at the highest concentrations [1] | Change in Edema Volume 1 h [2] | inhibition of edema, first hour [2] [%] | Change in Edema Volume 2 h [2] | inhibition of edema, second hour [2] [%] | Change in Edema Volume 3 h [2] | inhibition of edema, third hour [2] [%]
four times more potent as A2AR ligand | 96 ± 31 | 9 | > 1000 | C#CCn1c(=O)c2c(nc(NCc3ccccc3Cl)n2C)n(C)c1=O [compound 19, 8-((2-Chlorobenzyl)amino)-3,7-dimethyl-1-(prop-2-yn-1-yl)-3,7-dihydro-1H-purine-2,6-dione] | precipitated and formed crystals in the culture medium | 0.56 ± 0.13 mL | 28.2 | 0.72 ± 0.09 mL | 35.7 | 1.10 ± 0.21 mL | 17.3
twice more potent as A2AR ligand | 62 ± 5 | 21 | > 1000 | C#CCn1c(=O)c2c(nc(NCc3c(F)cccc3Cl)n2C)n(C)c1=O [compound 22, 8-((2-Chloro-6-fluorobenzyl)amino)-3,7-dimethyl-1-(prop-2-yn-1-yl)-3,7-dihydro-1H-purine-2,6-dione] | precipitated and formed crystals in the culture medium | 0.49 ± 0.08 mL | 37.1 | 0.91 ± 0.05 mL | 18.7 | 0.92 ± 0.06 mL | 30.8
equal potency for both receptors | 77 ± 24 | 7 | > 1000 | C#CCn1c(=O)c2c(nc(NCc3cccc(Br)c3)n2C)n(C)c1=O [compound 24, 8-((3-Bromobenzyl)amino)-3,7-dimethyl-1-(prop-2-yn-1-yl)-3,7-dihydro-1H-purine-2,6-dione] | precipitated and formed crystals in the culture medium | 0.38 ± 0.02 ^a mL | 51.2 | 0.63 ± 0.14 ^a mL | 43.8 | 0.69 ± 0.01 ^b mL | 48.1
